Data: ChEMBL document CHEMBL4321825, “Discovery of a Series of 5-Azaquinazolines as Orally Efficacious IRAK4 Inhibitors Targeting MyD88L265P Mutant Diffuse Large B Cell Lymphoma” (J Med Chem, 2019)
Values after ≈ are worked out from the molar mass of the structure shown. Active and inactive are the calls of the source. No cut-off for these calls is given here.

Columns and labels:
[1] = Oral bioavailability in Han Wistar rat at 2 mg/kg; assay type: ADME, organism-based; settings: in vivo
CDK8/Cyclin C = CDK8/Cyclin C (Homo sapiens, UniProt P49336); assay: Inhibition of human recombinant CDK8/cyclinC expressed in Baculovirus system
Sequence of CDK8/Cyclin C (P49336 whole entry): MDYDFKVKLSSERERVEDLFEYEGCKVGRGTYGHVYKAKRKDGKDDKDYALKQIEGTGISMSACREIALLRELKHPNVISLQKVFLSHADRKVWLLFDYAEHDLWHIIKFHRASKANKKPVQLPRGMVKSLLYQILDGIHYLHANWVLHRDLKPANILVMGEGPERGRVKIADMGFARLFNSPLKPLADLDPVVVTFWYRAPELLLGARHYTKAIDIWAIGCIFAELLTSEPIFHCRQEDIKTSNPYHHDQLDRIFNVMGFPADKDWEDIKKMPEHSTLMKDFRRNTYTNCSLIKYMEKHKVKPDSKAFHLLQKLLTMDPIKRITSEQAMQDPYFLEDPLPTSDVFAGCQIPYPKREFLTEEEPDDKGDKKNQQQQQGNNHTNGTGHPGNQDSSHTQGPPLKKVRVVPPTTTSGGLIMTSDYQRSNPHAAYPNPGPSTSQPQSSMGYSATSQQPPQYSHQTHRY
Sequence of CDK8/Cyclin C (P24863 whole entry, further chain): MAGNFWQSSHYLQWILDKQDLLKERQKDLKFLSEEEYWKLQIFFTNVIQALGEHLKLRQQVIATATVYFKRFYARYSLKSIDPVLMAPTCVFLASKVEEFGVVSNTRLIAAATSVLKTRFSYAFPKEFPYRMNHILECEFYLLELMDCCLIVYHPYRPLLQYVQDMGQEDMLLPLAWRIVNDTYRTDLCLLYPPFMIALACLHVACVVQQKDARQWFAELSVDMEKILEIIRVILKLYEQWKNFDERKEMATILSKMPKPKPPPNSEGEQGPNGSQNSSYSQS

OCI-LY19 [2] = assay: Growth inhibition of human OCI-LY19 cells at 0.13 uM incubated for 3 days by Alamar blue dye based fluorescence assay (reference value: 3%); assay type: functional; settings: OCI-LY19, 72 h, read-out: GI
[3] = Aqueous solubility in pH 7.4 phosphate buffer; assay type: physicochemical
Homo sapiens [4] = organism: Homo sapiens; assay: Selectivity index, ratio of IC50 for inhibition of human recombinant CDK8/cyclinC expressed in Baculovirus system to IC50 for inhibition of IRAK4 (unknown origin) in presence of 5 mM ATP by enzymatic assay
OCI-Ly10 [5] = assay: Growth inhibition of human OCI-LY10 cells at 0.33 uM incubated for 3 days by Alamar blue dye based fluorescence assay (reference value: 3%); assay type: functional; settings: OCI-Ly10, 72 h, read-out: GI
[6] = biological target: T1, Interleukin-1 receptor-associated kinase 4 (Homo sapiens, UniProt Q9NWZ3); assay: Inhibition of IRAK4 (unknown origin) in presence of 5 mM ATP by enzymatic assay
T1 sequence (Q9NWZ3 whole entry): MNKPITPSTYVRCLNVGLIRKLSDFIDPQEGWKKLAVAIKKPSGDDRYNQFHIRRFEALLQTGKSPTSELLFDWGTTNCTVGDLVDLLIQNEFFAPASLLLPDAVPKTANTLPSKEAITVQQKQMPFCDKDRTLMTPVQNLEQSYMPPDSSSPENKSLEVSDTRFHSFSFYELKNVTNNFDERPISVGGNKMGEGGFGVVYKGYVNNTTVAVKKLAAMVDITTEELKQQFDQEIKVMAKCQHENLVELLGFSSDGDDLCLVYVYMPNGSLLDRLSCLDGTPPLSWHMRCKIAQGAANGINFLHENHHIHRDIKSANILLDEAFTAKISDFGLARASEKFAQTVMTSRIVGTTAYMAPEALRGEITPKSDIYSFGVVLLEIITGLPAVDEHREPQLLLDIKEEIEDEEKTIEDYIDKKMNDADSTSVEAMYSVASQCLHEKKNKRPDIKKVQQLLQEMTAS

[7] = biological target: T2, Interleukin-1 receptor-associated kinase 4 (Homo sapiens) (UniProt Q9NWZ3); assay: Inhibition of IRAK4 in human OCI-LY10 cells assessed as decrease in pIKBalpha levels at 0.3 uM in presence of 3 nM ibrutinib incubated for 14 hrs by Western blotting analysis relative to control; assay type: cell-based
T2 sequence (whole entry): T1 sequence (Q9NWZ3 whole entry)

[8] = Intrinsic clearance in human hepatocytes assessed per million cells; assay type: ADME, cell-based, Hepatocyte; settings: read-out: CLH
OCI-LY19 [9] = assay: Growth inhibition of human OCI-LY19 cells at 1.7 uM incubated for 3 days by Alamar blue dye based fluorescence assay (reference value: 3%); assay type: functional; settings: OCI-LY19, 72 h, read-out: GI
[10] = biological target: T3, Interleukin-1 receptor-associated kinase 1 (Homo sapiens, UniProt P51617); assay: Inhibition of IRAK1 (unknown origin) at 0.1 uM relative to control
Target sequence in this assay (P51617 whole entry, looked up): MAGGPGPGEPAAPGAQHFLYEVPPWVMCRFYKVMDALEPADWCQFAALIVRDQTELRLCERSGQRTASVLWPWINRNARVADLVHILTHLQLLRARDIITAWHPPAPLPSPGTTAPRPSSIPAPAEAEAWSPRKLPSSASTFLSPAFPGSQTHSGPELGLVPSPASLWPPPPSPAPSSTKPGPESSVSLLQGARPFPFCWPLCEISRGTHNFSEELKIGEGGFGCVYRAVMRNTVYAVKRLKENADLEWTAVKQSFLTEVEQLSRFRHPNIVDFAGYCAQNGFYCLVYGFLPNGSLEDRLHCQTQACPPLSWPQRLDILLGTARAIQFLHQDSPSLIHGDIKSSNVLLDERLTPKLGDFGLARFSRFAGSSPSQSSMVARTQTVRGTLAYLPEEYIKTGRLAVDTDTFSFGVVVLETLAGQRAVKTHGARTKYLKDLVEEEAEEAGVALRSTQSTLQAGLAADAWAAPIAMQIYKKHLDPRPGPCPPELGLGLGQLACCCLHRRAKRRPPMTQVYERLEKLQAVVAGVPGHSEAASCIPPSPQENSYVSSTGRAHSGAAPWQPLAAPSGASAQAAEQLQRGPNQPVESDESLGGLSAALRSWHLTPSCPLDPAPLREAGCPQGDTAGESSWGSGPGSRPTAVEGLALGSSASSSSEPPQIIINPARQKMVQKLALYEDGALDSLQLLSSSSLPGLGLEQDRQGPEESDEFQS

[11] = biological target: Dual specificity protein kinase CLK4 (Homo sapiens, UniProt Q9HAZ1); assay: Inhibition of human recombinant CLK4 expressed in Baculovirus system
Sequence of Dual specificity protein kinase CLK4 (Q9HAZ1 whole entry): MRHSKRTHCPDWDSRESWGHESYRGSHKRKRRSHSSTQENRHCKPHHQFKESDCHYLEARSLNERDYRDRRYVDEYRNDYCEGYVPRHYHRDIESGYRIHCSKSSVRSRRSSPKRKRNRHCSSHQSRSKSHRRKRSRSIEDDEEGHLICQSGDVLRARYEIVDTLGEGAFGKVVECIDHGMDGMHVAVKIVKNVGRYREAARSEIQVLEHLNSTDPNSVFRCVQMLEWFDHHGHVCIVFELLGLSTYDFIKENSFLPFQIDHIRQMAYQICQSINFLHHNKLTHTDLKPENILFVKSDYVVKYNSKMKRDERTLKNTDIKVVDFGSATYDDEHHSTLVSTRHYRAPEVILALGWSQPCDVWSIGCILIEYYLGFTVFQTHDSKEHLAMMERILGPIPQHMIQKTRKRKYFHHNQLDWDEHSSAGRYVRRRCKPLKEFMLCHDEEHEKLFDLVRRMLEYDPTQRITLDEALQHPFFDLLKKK

Homo sapiens [12] = organism: Homo sapiens; assay: Selectivity index, ratio of IC50 for inhibition of CDK7 (unknown origin) to IC50 for inhibition of IRAK4 (unknown origin) in presence of 5 mM ATP by enzymatic assay
[13] = Efflux ratio in human Caco2 cells; assay type: ADME, cell-based; settings: Caco-2
[14] = biological target: T2, Interleukin-1 receptor-associated kinase 4 (Homo sapiens); assay: Inhibition of IRAK4 (unknown origin) at 0.1 uM relative to control
[15] = biological target: T1, Interleukin-1 receptor-associated kinase 4; assay: Inhibition of IRAK4 (unknown origin) by cell based assay
OCI-LY19 [16] = assay: Growth inhibition of human OCI-LY19 cells at 10 uM incubated for 3 days by Alamar blue dye based fluorescence assay (reference value: 3%); assay type: functional; settings: OCI-LY19, 72 h, read-out: GI
OCI-Ly10 [17] = assay: Antitumor activity against human OCI-LY10 cells xenografted in CB.17 SCID mouse assessed as induction of tumor regression at 100 mg/kg, po QD dosed 34 days after tumor cell inoculation and co-treated with 12 mg/kg, po QD ibrutinib; assay type: functional, organism-based
OCI-Ly10 [18] = assay: Growth inhibition of human OCI-LY10 cells at 1.7 uM incubated for 3 days by Alamar blue dye based fluorescence assay (reference value: 3%); assay type: functional; settings: OCI-Ly10, 72 h, read-out: GI
[19] = biological target: Cyclin-dependent kinase 9 (Homo sapiens, UniProt P50750); assay: Inhibition of CDK9 (unknown origin)
Sequence of Cyclin-dependent kinase 9 (P50750 whole entry): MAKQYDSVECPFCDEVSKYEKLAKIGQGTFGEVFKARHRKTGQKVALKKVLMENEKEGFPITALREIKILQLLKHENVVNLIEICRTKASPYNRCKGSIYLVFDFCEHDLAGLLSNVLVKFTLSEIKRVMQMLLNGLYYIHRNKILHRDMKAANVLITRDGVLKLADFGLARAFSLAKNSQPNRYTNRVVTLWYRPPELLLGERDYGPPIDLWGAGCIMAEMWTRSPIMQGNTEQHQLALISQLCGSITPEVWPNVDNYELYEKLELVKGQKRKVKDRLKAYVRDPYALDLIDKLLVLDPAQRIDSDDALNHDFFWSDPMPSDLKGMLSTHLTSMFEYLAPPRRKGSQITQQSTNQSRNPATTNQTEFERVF

[20] = biological target: Cyclin-dependent kinase 7 (Homo sapiens, UniProt P50613); assay: Inhibition of CDK7 (unknown origin)
Sequence of Cyclin-dependent kinase 7 (P50613 whole entry): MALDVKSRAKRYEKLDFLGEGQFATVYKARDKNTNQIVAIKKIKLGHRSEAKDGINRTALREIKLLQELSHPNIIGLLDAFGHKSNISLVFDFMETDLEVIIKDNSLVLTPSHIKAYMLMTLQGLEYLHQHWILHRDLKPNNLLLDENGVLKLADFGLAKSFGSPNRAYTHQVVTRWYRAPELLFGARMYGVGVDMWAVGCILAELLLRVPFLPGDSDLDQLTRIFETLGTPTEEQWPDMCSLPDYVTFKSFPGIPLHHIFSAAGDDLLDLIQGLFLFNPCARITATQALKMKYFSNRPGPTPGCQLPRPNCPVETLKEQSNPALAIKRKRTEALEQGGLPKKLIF

[21] = Volume of distribution at steady state in Han Wistar rat at 1 mg/kg, iv; assay type: ADME, organism-based; settings: in vivo, read-out: Vdss
[22] = Plasma clearance in Han Wistar rat at 1 mg/kg, iv; assay type: ADME, organism-based
[23] = biological target: Dual specificity protein kinase CLK3 (Homo sapiens, UniProt P49761); assay: Inhibition of human recombinant CLK3 expressed in Baculovirus system
Sequence of Dual specificity protein kinase CLK3 (P49761 whole entry): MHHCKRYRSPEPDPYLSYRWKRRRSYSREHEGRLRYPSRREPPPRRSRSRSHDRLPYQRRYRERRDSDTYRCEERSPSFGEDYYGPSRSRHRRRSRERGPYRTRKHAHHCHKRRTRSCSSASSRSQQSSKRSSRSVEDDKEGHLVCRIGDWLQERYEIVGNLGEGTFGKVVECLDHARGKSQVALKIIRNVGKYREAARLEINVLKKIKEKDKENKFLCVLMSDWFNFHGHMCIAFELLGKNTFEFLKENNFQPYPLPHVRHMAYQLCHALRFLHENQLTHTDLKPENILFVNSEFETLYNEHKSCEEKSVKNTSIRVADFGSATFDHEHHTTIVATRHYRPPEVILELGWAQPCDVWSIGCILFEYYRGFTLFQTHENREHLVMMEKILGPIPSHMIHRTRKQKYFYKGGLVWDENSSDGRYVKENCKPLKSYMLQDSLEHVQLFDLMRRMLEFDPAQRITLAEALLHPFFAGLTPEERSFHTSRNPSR

Homo sapiens [24] = organism: Homo sapiens; assay: Selectivity index, ratio of IC50 for inhibition of CDK9 (unknown origin) to IC50 for inhibition of IRAK4 (unknown origin) in presence of 5 mM ATP by enzymatic assay
[25] = Unbound fraction in rat plasma at 37 degC by equilibrium dialysis; assay type: ADME, cell-free
[26] = Unbound fraction in mouse plasma at 37 degC by equilibrium dialysis; assay type: ADME, cell-free
OCI-LY19 [27] = assay: Growth inhibition of human OCI-LY19 cells at 3.3 uM incubated for 3 days by Alamar blue dye based fluorescence assay (reference value: 3%); assay type: functional; settings: OCI-LY19, 72 h, read-out: GI
[28] = biological target: Dual specificity protein kinase CLK2 (Homo sapiens, UniProt P49760); assay: Inhibition of human recombinant CLK2 expressed in Baculovirus system
Sequence of Dual specificity protein kinase CLK2 (P49760 whole entry): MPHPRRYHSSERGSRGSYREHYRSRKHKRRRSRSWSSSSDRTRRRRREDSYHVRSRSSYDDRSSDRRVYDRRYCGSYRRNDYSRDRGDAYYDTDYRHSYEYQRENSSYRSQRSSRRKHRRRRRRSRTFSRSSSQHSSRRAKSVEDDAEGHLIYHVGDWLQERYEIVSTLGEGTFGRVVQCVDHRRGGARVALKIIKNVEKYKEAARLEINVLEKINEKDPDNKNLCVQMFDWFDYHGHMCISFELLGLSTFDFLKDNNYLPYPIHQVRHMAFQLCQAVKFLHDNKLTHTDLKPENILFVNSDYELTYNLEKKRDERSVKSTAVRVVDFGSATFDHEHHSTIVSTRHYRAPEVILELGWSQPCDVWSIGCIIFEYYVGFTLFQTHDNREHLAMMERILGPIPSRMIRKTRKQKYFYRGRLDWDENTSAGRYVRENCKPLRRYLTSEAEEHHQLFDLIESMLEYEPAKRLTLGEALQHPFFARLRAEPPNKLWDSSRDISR

OCI-Ly10 [29] = assay: Growth inhibition of human OCI-LY10 cells at 3.3 uM incubated for 3 days by Alamar blue dye based fluorescence assay (reference value: 3%); assay type: functional; settings: OCI-Ly10, 72 h, read-out: GI
[30] = Intrinsic clearance in rat hepatocytes assessed per million cells; assay type: ADME, cell-based, Hepatocyte; settings: read-out: CLH
OCI-Ly10 [31] = assay: Antitumor activity against human OCI-LY10 cells xenografted in CB.17 SCID mouse assessed as inhibition of tumor growth at 100 mg/kg, po QD dosed 34 days after tumor cell inoculation; assay type: functional, organism-based
Homo sapiens [32] = organism: Homo sapiens; assay: Selectivity index, ratio of IC50 for inhibition of human recombinant CLK3 expressed in Baculovirus system to IC50 for inhibition of IRAK4 (unknown origin) in presence of 5 mM ATP by enzymatic assay
OCI-LY19 [33] = assay: Growth inhibition of human OCI-LY19 cells at 0.33 uM incubated for 3 days by Alamar blue dye based fluorescence assay (reference value: 3%); assay type: functional; settings: OCI-LY19, 72 h, read-out: GI
[34] = biological target: Dual specificity protein kinase CLK1 (Homo sapiens, UniProt P49759); assay: Inhibition of human recombinant CLK1 expressed in Escherichia coli
Sequence of Dual specificity protein kinase CLK1 (P49759 whole entry): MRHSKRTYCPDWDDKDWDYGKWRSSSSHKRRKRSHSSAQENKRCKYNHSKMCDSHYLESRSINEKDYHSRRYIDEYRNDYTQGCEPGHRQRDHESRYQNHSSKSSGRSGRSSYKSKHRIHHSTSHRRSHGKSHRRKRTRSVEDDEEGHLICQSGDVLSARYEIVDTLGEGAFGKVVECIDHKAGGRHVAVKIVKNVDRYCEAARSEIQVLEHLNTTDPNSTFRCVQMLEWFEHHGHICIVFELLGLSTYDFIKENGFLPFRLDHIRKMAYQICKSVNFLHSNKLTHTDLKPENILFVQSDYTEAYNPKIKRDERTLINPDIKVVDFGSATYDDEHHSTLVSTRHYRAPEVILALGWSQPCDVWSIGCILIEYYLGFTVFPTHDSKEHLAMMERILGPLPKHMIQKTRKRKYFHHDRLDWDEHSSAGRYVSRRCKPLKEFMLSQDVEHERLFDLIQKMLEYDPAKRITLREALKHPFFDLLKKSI

Homo sapiens [35] = organism: Homo sapiens; assay: Selectivity index, ratio of IC50 for inhibition of human recombinant CLK1 expressed in Escherichia coli to IC50 for inhibition of IRAK4 (unknown origin) in presence of 5 mM ATP by enzymatic assay
[36] = Intrinsic permeability in human Caco2 cells; assay type: ADME, cell-based; settings: Caco-2
[37] = biological target: T3, Interleukin-1 receptor-associated kinase 1; assay: Inhibition of IRAK1 (unknown origin)
Target sequence in this assay (P51617 whole entry): as the sequence (P51617 whole entry, looked up) above

[38] = Lipophilicity, logD of the compound at pH 7.4 by shake-flask assay; assay type: physicochemical; settings: buffer
[39] = AUC in SCID mouse at 50 mg/kg, po; assay type: ADME, organism-based; settings: in vivo
[40] = Unbound fraction in human plasma at 37 degC by equilibrium dialysis; assay type: ADME, cell-free
Homo sapiens [41] = organism: Homo sapiens; assay: Selectivity index, ratio of IC50 for inhibition of human recombinant CLK2 expressed in Baculovirus system to IC50 for inhibition of IRAK4 (unknown origin) in presence of 5 mM ATP by enzymatic assay
OCI-Ly10 [42] = assay: Growth inhibition of human OCI-LY10 cells at 10 uM incubated for 3 days by Alamar blue dye based fluorescence assay (reference value: 3%); assay type: functional; settings: OCI-Ly10, 72 h, read-out: GI
OCI-Ly10 [43] = assay: Growth inhibition of human OCI-LY10 cells at 0.13 uM incubated for 3 days by Alamar blue dye based fluorescence assay (reference value: 3%); assay type: functional; settings: OCI-Ly10, 72 h, read-out: GI
Homo sapiens [44] = organism: Homo sapiens; assay: Selectivity index, ratio of IC50 for inhibition of IRAK1 (unknown origin) to IC50 for inhibition of IRAK4 (unknown origin) in presence of 5 mM ATP by enzymatic assay
Homo sapiens [45] = organism: Homo sapiens; assay: Selectivity index, ratio of IC50 for inhibition of human recombinant CLK4 expressed in Baculovirus system to IC50 for inhibition of IRAK4 (unknown origin) in presence of 5 mM ATP by enzymatic assay

## COC(=O)N1CCN([C@H]2CC[C@H](Nc3nc(Nc4cnn(C)c4)nc4ccc(CC#N)nc34)CC2)CC1
[1]
  bioavailability: 10%
CDK8/Cyclin C
  IC50: > 10000 nM
OCI-LY19 [2]
  inhibition of growth at 0.13 µM: 6%
[3]
  solubility: 29 µM (≈ 14.6 µg/mL)
Homo sapiens [4]
  Ratio IC50: > 2500
OCI-Ly10 [5]
  inhibition of growth at 0.33 µM: 12%
[6]
  IC50: 4 nM
[7]
  inhibition: 100%
[8]
  hepatocyte CLint: 10 µL/min/1e6 cells
OCI-LY19 [9]
  inhibition of growth at 1.7 µM: 31%
[10]
  inhibition: 70%
[11]
  IC50: 1000 nM
Homo sapiens [12]
  Ratio IC50: 4250
[13]
  efflux ratio: 24
[14]
  inhibition: 104%
[15]
  IC50: 46 nM
OCI-LY19 [16]
  inhibition of growth at 10 µM: 88%
OCI-Ly10 [17]
  Activity: Active
OCI-Ly10 [18]
  inhibition of growth at 1.7 µM: 25%
[19]
  IC50: 13000 nM
[20]
  IC50: 17000 nM
[21]
  Vd: 4.5 L/kg
[22]
  clearance: 25 mL/min/kg
[23]
  IC50: > 10000 nM
Homo sapiens [24]
  Ratio IC50: 3250
[25]
  fraction unbound: 0.23
[26]
  fraction unbound: 0.44
OCI-LY19 [27]
  inhibition of growth at 3.3 µM: 50%
[28]
  IC50: 1400 nM
OCI-Ly10 [29]
  inhibition of growth at 3.3 µM: 44%
[30]
  hepatocyte CLint: 10 µL/min/1e6 cells
OCI-Ly10 [31]
  TGI: Active
Homo sapiens [32]
  Ratio IC50: > 2500
OCI-LY19 [33]
  inhibition of growth at 0.33 µM: 10%
[34]
  IC50: 3100 nM
Homo sapiens [35]
  Ratio IC50: 775
[36]
  Papp: 9.3 ×10⁻⁶ cm/s
[37]
  IC50: 27 nM
[38]
  logD: 2.3
[39]
  AUC: 23 µM·h
[40]
  fraction unbound: 0.3
Homo sapiens [41]
  Ratio IC50: 350
OCI-Ly10 [42]
  inhibition of growth at 10 µM: 82%
OCI-Ly10 [43]
  inhibition of growth at 0.13 µM: 8%
Homo sapiens [44]
  Ratio IC50: 6.8
Homo sapiens [45]
  Ratio IC50: 250
